This note sets out measurements from ChEMBL document CHEMBL1142835, “(S,E)-N-[1-(3-heteroarylphenyl)ethyl]-3-(2-fluorophenyl)acrylamides: synthesis and KCNQ2 potassium channel opener activity” (Bioorg Med Chem Lett, 2005).

Assay [1] addresses Potassium voltage-gated channel subfamily KQT member 2 (Mus musculus) (UniProt Q9Z351). Kind of assay: Relative efficacy as ratio of maximal current amplitudes for compound and reference. The format is functional.
Assay [2] concerns the target Potassium voltage-gated channel subfamily KQT member 2 (Mus musculus, UniProt Q9Z351). Kind of assay: Effect on outward potassium currents in whole-cell patch clamp assay of HEK 293 cells expressing cloned mouse KCNQ2 channel at -40 mV. The format is functional, cell-based, HEK293.

Each structure is given as a SMILES string.

What is called EC50 is the concentration at which the effect is half-maximal. High values mean weaker potency, low ones greater potency.

Chain of Potassium voltage-gated channel subfamily KQT member 2 (Mus musculus) (Q9Z351 whole entry): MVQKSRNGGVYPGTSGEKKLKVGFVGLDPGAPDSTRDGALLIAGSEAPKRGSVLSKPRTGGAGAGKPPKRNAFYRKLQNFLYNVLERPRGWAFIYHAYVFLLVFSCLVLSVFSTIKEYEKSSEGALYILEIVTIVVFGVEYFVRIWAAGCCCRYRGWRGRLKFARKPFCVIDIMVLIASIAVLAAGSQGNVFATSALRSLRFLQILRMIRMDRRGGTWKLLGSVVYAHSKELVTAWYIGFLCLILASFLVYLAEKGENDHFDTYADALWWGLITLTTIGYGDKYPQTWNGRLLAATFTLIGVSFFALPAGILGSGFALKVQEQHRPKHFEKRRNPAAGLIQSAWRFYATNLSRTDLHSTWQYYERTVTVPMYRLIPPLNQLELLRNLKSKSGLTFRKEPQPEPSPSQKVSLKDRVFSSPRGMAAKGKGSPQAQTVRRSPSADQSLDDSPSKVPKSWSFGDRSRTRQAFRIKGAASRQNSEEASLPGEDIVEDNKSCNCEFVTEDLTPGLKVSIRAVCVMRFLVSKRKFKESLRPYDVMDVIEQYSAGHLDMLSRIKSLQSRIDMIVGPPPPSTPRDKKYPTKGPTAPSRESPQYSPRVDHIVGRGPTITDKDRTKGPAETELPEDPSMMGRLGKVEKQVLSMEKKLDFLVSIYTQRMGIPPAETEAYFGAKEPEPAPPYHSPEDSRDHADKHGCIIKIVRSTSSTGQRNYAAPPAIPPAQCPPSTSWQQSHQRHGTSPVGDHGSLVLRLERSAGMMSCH
Chain of Potassium voltage-gated channel subfamily KQT member 2 (Q9Z351 whole entry): as above

Take `C[C@H](NC(=O)/C=C/c1ccccc1F)c1cccc(-n2cncn2)c1`: in assay [1], the E/Eref was 1.2. The compound also came in with an EC50 in assay [2] of 330 nM.

Take `C[C@H](NC(=O)/C=C/c1ccccc1F)c1cccc(-c2ccc(F)nc2)c1`: the E/Eref in assay [1] came out at 0.85. In assay [2], this compound displayed an EC50 of 10 nM.

Take `C[C@H](NC(=O)/C=C/c1ccccc1)c1cccc(N2CCOCC2)c1`: the E/Eref in assay [1] stood at 1.4. In addition, the midpoint of the response in assay [2], the EC50, lay at 3200 nM.

Consider `C[C@H](NC(=O)/C=C/c1ccccc1)c1cccc(-n2cccn2)c1`, for which, in assay [1], the E/Eref came out at 1.9. This compound also returned an EC50 in assay [2] of 1200 nM.

On to `C[C@H](NC(=O)/C=C/c1ccccc1F)c1ccc2c(c1)N(CC1CC1)CCO2`, for which the E/Eref in assay [1] came to 1.83.

With `C[C@H](NC(=O)/C=C/c1ccccc1Cl)c1ccc2c(c1)OCO2`, in assay [1], the E/Eref was 1.1. This compound showed a concentration for a half-maximal effect (EC50) in assay [2] of 20 nM.

For the compound `C[C@H](NC(=O)/C=C/c1ccccc1F)c1cccc(-n2cccn2)c1`, in assay [1], the E/Eref came to 1.6. This compound yielded an EC50 in assay [2] of 120 nM.

As to `C[C@H](NC(=O)/C=C/c1ccccc1F)c1cccc(-c2cnccn2)c1`, the E/Eref in assay [1] was 1.57. The concentration for a half-maximal effect (EC50) in assay [2] was 370 nM.

With `CCOC(=O)Nc1ccc(NCc2ccc(F)cc2)cc1N`, in assay [1], the E/Eref worked out at 1.6.

As to `C[C@H](NC(=O)/C=C/c1ccccc1F)c1cccc(-c2ccccn2)c1`, the E/Eref in assay [1] was found to be 1.8. The EC50 in assay [2] was 1200 nM.
